The nature of data set [1]: Single-dose oral toxicity. The data set is classed as in vivo, Beagle dogs. The procedure: (§1) Suzhou Zelgen Biopharmaceuticals Co., Ltd. Jaktinib Hydrochloride Tablets Chemical Drug Class 1 New Drug
During the trial, the general conditions of the […]
measured once on days 3, 7, and 13, respectively. After 14 days of observation, the […]
and blood biochemistry tests. All rats were euthanized for gross anatomy. […]
after drug administration. […] During the […]
biochemistry tests were performed on days 2 and 15. After 14 days of observation, all dogs were anesthetized and euthanized for gross anatomy. Blood samples were […]
administration in ZG0128 dose groups. LC-MS/MS was used to measure the […]
AUClast, Cmax, Tmax, and other toxicokinetic parameters.

Data set [2] is described as follows: 28-day oral gavage toxicity. Format: in vivo, Wistar rats. The following applies: for drug exposure: 24.4 mg/kg. The procedure: Suzhou Zelgen Biopharmaceuticals Co., Ltd. Jaktinib Hydrochloride Tablets Chemical Drug Class 1 New Drug […]
active ingredient ZG0163). The control group contained 36 Wistar rats (6 rats were used for the toxicokinetic test) and each group of ZG0128 contained 54 rats (24 rats in each group were used for the toxicokinetic test), with half males and half females. The rats in each group were given the control substance (0.5% CMC-Na solution) or the corresponding concentrations of ZG0128 in a 10 mL/kg volume by oral gavage once a […]
The day of the first dose […]
is defined as day 1 of the dosing period, while the day of anatomy after the last dose is defined as day 1 of the recovery period. During the dosing period and the recovery […]
the body weight and food intake of the rats were measured twice a week during the […]
recovery periods, respectively. In the 219.6 mg/kg group, 12 (3 females, 9 males) and […]
and recovery periods, respectively. The rats in each group were anesthetized to collect blood samples for hematology and blood biochemistry tests. After the rats were […]
histopathological examination of tissue samples were performed. For the rats in […]
ZG0128 groups used for toxicokinetic test, their blood samples were collected before the first dose and last dose as well as 0.5, 1, 2, 3, 4, 6, 10, and 24 h after the first dose and last dose. For the rats in the control group, their blood samples were collected before the first dose and last dose and 3 h after the first dose and last dose, respectively.
LC-MS/MS was used to measure the concentrations of the original drug ZG0163 and its amide hydrolysis metabolite ZG0245 in the blood samples collected at various time […]
tissues, spleen, thymus, and bone marrow), digestive system (gastrointestinal tract, pancreas, and submandibular gland), reproduction system, kidney, and bones. The drug caused abnormal indicators related to liver, renal, and pancreatic functions, as well as decreased lymphocytes and platelets. At the dose of 73.2 mg/kg, some of the above lesions could be observed, but the severity of the lesions was mild. After drug discontinuation, the lesions in the submandibular gland, testis, and epididymis were still visible in 73.2 and 219.6 mg/kg groups, and the severity of the lesions was not […]
disappeared after drug discontinuation.
In the dose range of 24.4 to 219.6 mg/kg, the exposure to ZG0128 and its metabolite ZG0245 in female and male rats increased in proportion to the dose, and no significant gender difference was observed. After 28 days of consecutive administration, […]
both female and male rats of each dose group.
After the Wistar rats were given 24.4, 73.2, and 219.6 mg/kg of ZG0128 by oral […]
mg/kg. At this dose, the drug exposure dose in female rats on the first day of dosing […]
10124 h•ng/mL in male rats. On day 28 of dosing, the drug exposure dose in female

A short description of data set [3]: 26-week oral gavage toxicity. The data set is classed as in vivo, Wistar rats. The procedure:
as §1
Wistar rats were given 4, 12, or 30 mg/kg of ZG0128 via oral gavage once a day for 26 consecutive weeks, followed by 28 days for recovery after drug discontinuation.
Only the 30 mg/kg dose caused a slight decrease in lymphocyte counts, which might be related to the pharmacological effects of ZG0128. The lymphocyte counts were back to normal by the end of recovery period. No other obvious abnormalities related to the […]
conditions, body weight, ophthalmologic examination, blood biochemistry, blood coagulation, routine urinalysis, gross anatomy and histopathological examination during the trial. The no observed adverse effect level (NOAEL) was 30 mg/kg. At this dose, the drug exposure was 52697 h•ng/mL (based on the active ingredient ZG0163) in female rats and 67133 h•ng/mL in male rats on the first day of dosing, and on day 182 of dosing the drug exposure was 75339 h•ng/mL (based on the active ingredient ZG0163) in female rats and 45024 h•ng/mL in male rats. […]

Data set [4] in a line: PK, 7-day intragastric dosing. The following applies: for AUC0-t / AUC0-∞ / Cmax / Tmax / t1/2: 30.5 mg/kg (multiple dose). Format: in vivo, rats. The procedure:
After 7 consecutive days of continuous intragastric administration (30.5 mg/kg once a day) of ZG0128 in rats, the plasma concentration reached a steady state on day […]
values obtained after the single-dose administration, respectively. The Cmax and AUC0-t of the metabolite ZG0245 were 1.19 and 1.52 times the values obtained after the single-dose administration, respectively. […]
consecutive days of administration, there was no significant accumulation of ZG0163 and the metabolite ZG0245 in rats. The pharmacokinetic parameters obtained after […]
Table 12. Pharmacokinetic parameters of ZG0163 in rats given different doses of ZG0128 via oral gavage (n = 6, male:female=1:1).
Dosage Gender Tmax Cmax AUC0-t AUC0-∞ MRT t1/2

Turning to Jaktinib, the AUC0-t in data set [1] (single oral 366 mg/kg ZG0128) was 10215 ± 10044 ng/mL; in data set [1] (single oral 1220 mg/kg ZG0128) it was 19752 ± 9998 ng/mL; in data set [4] (Female), 67.6 ± 27.6 µg·h/mL; in data set [4] (Male), 35.7 ± 13.5 µg·h/mL; in data set [4] (Overall), 51.7 ± 26.1 µg·h/mL. For the same compound, the drug exposure in data set [2] (female rats, day 28) is 51893 ± 20625 ng·h/mL; in data set [2] (female rats, first day), 60887 ± 21040 ng·h/mL; in data set [2] (male rats, day 28), 46522 ± 17149 ng·h/mL; in data set [2] (male rats, first day) it was 50799 ± 10124 ng·h/mL. Also, the NOAEL is reported as 30 mg/kg in data set [3] (26 weeks) and 30 mg/kg/day in data set [3] (Wistar rats, oral, 26 weeks). The “AUC0-∞” value in data set [4] (Female) is 67.8 ± 27.8 µg·h/mL; in data set [4] (Male), 36.0 ± 13.8 µg·h/mL; in data set [4] (Overall), 51.9 ± 26.2 µg·h/mL. Moreover, the Cmax in data set [4] (Female) turned out to be 11.0 ± 4.22 µg/mL; in data set [4] (Male), 6.34 ± 1.23 µg/mL; in data set [4] (Overall) it was 8.67 ± 3.77 µg/mL. Further, the Tmax in data set [4] (Female) is 1.0 h; in data set [4] (Male) it was 1.0 (1.0-2.0) h; in data set [4] (Overall), 1.0 (1.0-6.0) h. In addition, the t1/2 was 1.81 ± 1.55 h in data set [4] (Female), 2.15 ± 0.62 h in data set [4] (Male) and 1.98 ± 1.07 h in data set [4] (Overall).

For the compound `Cl.Cl.O.[2H]C1([2H])COCC([2H])([2H])N1c1ccc(Nc2nccc(-c3ccc(C(=O)NCC#N)cc3)n2)cc1` [ZG0128, Jaktinib Dihydrochloride Monohydrate], the “maximum tolerated dose (MTD)” value in data set [1] (single oral dose) was 1220 mg/kg. Also, the “highest non-severely toxic dose (HNSTD)” value in data set [2] (28 consecutive days) is given as 24.4 mg/kg. For the same compound, the “dose causing dying or death” value in data set [2] (28 days) is given as 219.6 mg/kg. Besides, in data set [3] (rat, in vivo), the NOAEL was determined as 30 mg/kg. Besides, the “day on which steady state was reached” value in data set [4] (30.5 mg/kg once a day) is 5 days.

The values above are taken from publication PMC7849180 (Frontiers in Pharmacology, 2020).
